Test results published in patent publication US20200370087A1, “METHOD FOR DETERMINING MICROBIAL SUSCEPTIBILITY TO ANTIBIOTIC AGENTS” (Ascilion AB, priority 2017, published 2020).
Values after ≈ are worked out from the molar mass of the structure shown.

Key:
[1] = tested on: Escherichia coli (ATCC 25922); assay: Glucose consumption susceptibility test, blood culture diluted in MHB with glucose (Example 1); type: cell-based; set-up: glucose concentration, t = 0 / glucose concentration, t = 60 / glucose concentration, t = 120 / glucose concentration, t = 180 / dC/dT (rate of change in glucose concentration) / glucose concentration, t = 240: unit not given here; conditions: E. coli; for glucose concentration, t = 60: 60 minutes; for glucose concentration, t = 120: 120 minutes; for glucose concentration, t = 180: 180 minutes
Procedure: (§1) Strains of Escherichia coli (ATCC 25922), Enterococcus faecalis (ATCC 29212) and Staphylococcus aureus (ATCC 29213) were inoculated in blood culture bottles (SVA, Uppsala, Sweden) and cultivated according to the manufacturer's instructions until positive.
(§2) Medium from each blood culture bottle was diluted 1:100 with cation adjusted Mueller-Hinton broth (SVA, Uppsala, Sweden) supplemented with glucose to a concentration of 1.0 mg/mL.
(§3) Glucose concentrations were measured at 0, 60, 120, 180, and 240 minutes using a WaveSense Jazz glucometer (AgaMatrix, Inc., Salem, N.H., USA) with accompanying test strips.
(§4) Susceptibility scores corresponding to MIC values were calculated as described above. A 80% threshold was applied, i.e. the lowest concentration of antibiotic that entailed a rate of change in glucose concentration that was equal to or less than 80% of the reference was selected as the Minimal Inhibitory Concentration. The rate of change was calculated between the measurements at 60 and 180 minutes.

[2] = tested on: Staphylococcus aureus (ATCC 29213); assay: as above; type: cell-based; conditions: S. aureus; for glucose concentration, t = 60: 60 minutes; for glucose concentration, t = 120: 120 minutes; for glucose concentration, t = 180: 180 minutes; for glucose concentration, t = 240: 240 minutes
Procedure: as §1, §2, §3, §4

[3] = tested on: Staphylococcus aureus ATCC 29213; conditions: S.aureus, cited from earlier work

CN[C@H](CC(C)C)C(=O)N[C@H]1C(=O)N[C@@H](CC(N)=O)C(=O)N[C@H]2C(=O)N[C@H]3C(=O)N[C@H](C(=O)N[C@H](C(=O)O)c4cc(O)cc(O)c4-c4cc3ccc4O)[C@H](O)c3ccc(c(Cl)c3)Oc3cc2cc(c3O[C@@H]2O[C@H](CO)[C@@H](O)[C@H](O)[C@H]2O[C@H]2C[C@](C)(N)[C@H](O)[C@H](C)O2)Oc2ccc(cc2Cl)[C@H]1O [Vancomycin, vancomycin]
F = the rate of change in glucose concentration in relation to the reference ([1]; antibiotic 0.0625 μg/mL): 67%
dC/dT (rate of change in glucose concentration) ([1]; antibiotic 0.0625 μg/mL): 42
glucose concentration, t = 60 ([1]; antibiotic 0.0625 μg/mL): 148
glucose concentration, t = 120 ([1]; antibiotic 0.0625 μg/mL): 144
glucose concentration, t = 180 ([1]; antibiotic 0.0625 μg/mL): 65
F = the rate of change in glucose concentration in relation to the reference ([1]; antibiotic 0.125 μg/mL): 71%
dC/dT (rate of change in glucose concentration) ([1]; antibiotic 0.125 μg/mL): 44
glucose concentration, t = 60 ([1]; antibiotic 0.125 μg/mL): 153
glucose concentration, t = 120 ([1]; antibiotic 0.125 μg/mL): 154
glucose concentration, t = 180 ([1]; antibiotic 0.125 μg/mL): 65
F = the rate of change in glucose concentration in relation to the reference ([1]; antibiotic 0.25 μg/mL): 68%
dC/dT (rate of change in glucose concentration) ([1]; antibiotic 0.25 μg/mL): 42
glucose concentration, t = 60 ([1]; antibiotic 0.25 μg/mL): 150
glucose concentration, t = 120 ([1]; antibiotic 0.25 μg/mL): 145
glucose concentration, t = 180 ([1]; antibiotic 0.25 μg/mL): 66
F = the rate of change in glucose concentration in relation to the reference ([1]; antibiotic 0.5 μg/mL): 65%
dC/dT (rate of change in glucose concentration) ([1]; antibiotic 0.5 μg/mL): 41
glucose concentration, t = 60 ([1]; antibiotic 0.5 μg/mL): 149
glucose concentration, t = 120 ([1]; antibiotic 0.5 μg/mL): 145
glucose concentration, t = 180 ([1]; antibiotic 0.5 μg/mL): 68
F = the rate of change in glucose concentration in relation to the reference ([1]; antibiotic 1 μg/mL): 73%
dC/dT (rate of change in glucose concentration) ([1]; antibiotic 1 μg/mL): 45
glucose concentration, t = 60 ([1]; antibiotic 1 μg/mL): 155
glucose concentration, t = 120 ([1]; antibiotic 1 μg/mL): 149
glucose concentration, t = 180 ([1]; antibiotic 1 μg/mL): 65
F = the rate of change in glucose concentration in relation to the reference ([1]; antibiotic 2 μg/mL): 65%
dC/dT (rate of change in glucose concentration) ([1]; antibiotic 2 μg/mL): 40
glucose concentration, t = 60 ([1]; antibiotic 2 μg/mL): 147
glucose concentration, t = 120 ([1]; antibiotic 2 μg/mL): 151
glucose concentration, t = 180 ([1]; antibiotic 2 μg/mL): 67
F = the rate of change in glucose concentration in relation to the reference ([1]; antibiotic 4 μg/mL): 69%
dC/dT (rate of change in glucose concentration) ([1]; antibiotic 4 μg/mL): 43
glucose concentration, t = 60 ([1]; antibiotic 4 μg/mL): 147
glucose concentration, t = 120 ([1]; antibiotic 4 μg/mL): 145
glucose concentration, t = 180 ([1]; antibiotic 4 μg/mL): 61
F = the rate of change in glucose concentration in relation to the reference ([1]; antibiotic 8 μg/mL): 87%
dC/dT (rate of change in glucose concentration) ([1]; antibiotic 8 μg/mL): 54
glucose concentration, t = 60 ([1]; antibiotic 8 μg/mL): 159
glucose concentration, t = 120 ([1]; antibiotic 8 μg/mL): 147
glucose concentration, t = 180 ([1]; antibiotic 8 μg/mL): 51
F = the rate of change in glucose concentration in relation to the reference ([2]; antibiotic 0.25 μg/mL): 75%
dC/dT (rate of change in glucose concentration) ([2]; antibiotic 0.25 μg/mL): 25
glucose concentration, t = 60 ([2]; antibiotic 0.25 μg/mL): 142
glucose concentration, t = 120 ([2]; antibiotic 0.25 μg/mL): 133
glucose concentration, t = 180 ([2]; antibiotic 0.25 μg/mL): 92
glucose concentration, t = 240 ([2]; antibiotic 0.25 μg/mL): 42
F = the rate of change in glucose concentration in relation to the reference ([2]; antibiotic 0.5 μg/mL): 84%
dC/dT (rate of change in glucose concentration) ([2]; antibiotic 0.5 μg/mL): 28
glucose concentration, t = 60 ([2]; antibiotic 0.5 μg/mL): 156
glucose concentration, t = 120 ([2]; antibiotic 0.5 μg/mL): 142
glucose concentration, t = 180 ([2]; antibiotic 0.5 μg/mL): 100
glucose concentration, t = 240 ([2]; antibiotic 0.5 μg/mL): 51
F = the rate of change in glucose concentration in relation to the reference ([2]; antibiotic 1 μg/mL): 96%
dC/dT (rate of change in glucose concentration) ([2]; antibiotic 1 μg/mL): 32
glucose concentration, t = 60 ([2]; antibiotic 1 μg/mL): 161
glucose concentration, t = 120 ([2]; antibiotic 1 μg/mL): 140
glucose concentration, t = 180 ([2]; antibiotic 1 μg/mL): 97
glucose concentration, t = 240 ([2]; antibiotic 1 μg/mL): 51
F = the rate of change in glucose concentration in relation to the reference ([2]; antibiotic 2 μg/mL): 88%
dC/dT (rate of change in glucose concentration) ([2]; antibiotic 2 μg/mL): 30
glucose concentration, t = 60 ([2]; antibiotic 2 μg/mL): 160
glucose concentration, t = 120 ([2]; antibiotic 2 μg/mL): 143
glucose concentration, t = 180 ([2]; antibiotic 2 μg/mL): 101
glucose concentration, t = 240 ([2]; antibiotic 2 μg/mL): 53
F = the rate of change in glucose concentration in relation to the reference ([2]; antibiotic 4 μg/mL): 39%
dC/dT (rate of change in glucose concentration) ([2]; antibiotic 4 μg/mL): 13
glucose concentration, t = 60 ([2]; antibiotic 4 μg/mL): 157
glucose concentration, t = 120 ([2]; antibiotic 4 μg/mL): 147
glucose concentration, t = 180 ([2]; antibiotic 4 μg/mL): 131
glucose concentration, t = 240 ([2]; antibiotic 4 μg/mL): 107
F = the rate of change in glucose concentration in relation to the reference ([2]; antibiotic 8 μg/mL): 6%
dC/dT (rate of change in glucose concentration) ([2]; antibiotic 8 μg/mL): 2
glucose concentration, t = 60 ([2]; antibiotic 8 μg/mL): 150
glucose concentration, t = 120 ([2]; antibiotic 8 μg/mL): 150
glucose concentration, t = 180 ([2]; antibiotic 8 μg/mL): 146
glucose concentration, t = 240 ([2]; antibiotic 8 μg/mL): 149
F = the rate of change in glucose concentration in relation to the reference ([2]; antibiotic 16 μg/mL): 7%
dC/dT (rate of change in glucose concentration) ([2]; antibiotic 16 μg/mL): 3
glucose concentration, t = 60 ([2]; antibiotic 16 μg/mL): 157
glucose concentration, t = 120 ([2]; antibiotic 16 μg/mL): 153
glucose concentration, t = 180 ([2]; antibiotic 16 μg/mL): 152
glucose concentration, t = 240 ([2]; antibiotic 16 μg/mL): 149
F = the rate of change in glucose concentration in relation to the reference ([2]; antibiotic 32 μg/mL): 13%
dC/dT (rate of change in glucose concentration) ([2]; antibiotic 32 μg/mL): 5
glucose concentration, t = 60 ([2]; antibiotic 32 μg/mL): 157
glucose concentration, t = 120 ([2]; antibiotic 32 μg/mL): 140
glucose concentration, t = 180 ([2]; antibiotic 32 μg/mL): 148
glucose concentration, t = 240 ([2]; antibiotic 32 μg/mL): 146
MIC, EUCAST, range in parentheses ([3]; range obtained by EUCAST from ISO 20776-1: 2006): (0.5-2) ug/mL
MIC, EUCAST ([3]; reference value, Mueller-Hinton agar, incubation 18±2 h): 1 µg/mL (≈ 0.69 µM)
